Assay results taken from patent US9113629B2, “4-amino-6-(4-substituted-phenyl)-picolinates and 6-amino-2-(4-substituted-phenyl)-pyrimidine-4-carboxylates and their use as herbicides” (DOW AGROSCIENCES LLC, priority 2013, dated 2015).
Read-outs that look alike come from different tables or passages of the source.

Legend:
[1] = tested on: Key Broadleaf Weed and Crop Species; assay: Post-emergent Test II herbicidal activity (Table 5); type: in vivo; conditions: post-emergence, 336 h, 14 days after application; for pest or weed control at 70 g/ha: application rate 70 g ai/ha; for pest or weed control at 140 g/ha: application rate 140 g ai/ha
Outline: (§1)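 Injury was rated visually 14 d after treatment on a 0–100% scale against untreated controls. Test compounds, formulated with crop oil concentrate and surfactant and serially diluted down to 1/16× of the top rate, were applied by track sprayer at 187 L/ha onto first- to second-true-leaf seedlings.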

[2] = tested on: Key Grass and Sedge Weeds as well as Grass Crops; assay: Post-emergent Test II herbicidal activity (Table 6); type: in vivo; conditions: post-emergence, 336 h; for pest or weed control at 70 g/ha: 70 g ai/ha; for pest or weed control at 140 g/ha: 140 g ai/ha
Outline: as §1

[3] = ABUTH: velvetleaf (Abutilon theophrasti), read-out: Visual Growth Reduction (%) 14 Days After Application, ABUTH
[4] = AMARE: redroot pigweed (Amaranthus retroflexus), read-out: Visual Growth Reduction (%) 14 Days After Application, AMARE
[5] = BRSNN: oilseed-rape, canola (Brassica napus), read-out: Visual Growth Reduction (%) 14 Days After Application, BRSNN
[6] = CHEAL: lambsquarters (Chenopodium album), read-out: Visual Growth Reduction (%) 14 Days After Application, CHEAL
[7] = EPHHL: wild poinsettia (Euphorbia heterophylla), read-out: Visual Growth Reduction (%) 14 Days After Application, EPHHL
[8] = HELAN: sunflower (Helianthus annuus), read-out: Visual Growth Reduction (%) 14 Days After Application, HELAN
[9] = VIOTR: wild pansy (Viola tricolor), read-out: Visual Growth Reduction (%) 14 Days After Application, VIOTR
[10] = CYPES: yellow nutsedge (Cyperus esculentus), read-out: Visual Growth Reduction (%) 14 Days After Application, CYPES
[11] = DIGSA: crabgrass (Digitaria sanguinalis), read-out: Visual Growth Reduction (%) 14 Days After Application, DIGSA
[12] = ECHCG: barnyardgrass (Echinochloa crus-galli), read-out: Visual Growth Reduction (%) 14 Days After Application, ECHCG
[13] = ORYSA: rice (Oryza sativa), crop, read-out: Visual Growth Reduction (%) 14 Days After Application, ORYSA
[14] = SETFA: giant foxtail (Setaria faberi), read-out: Visual Growth Reduction (%) 14 Days After Application, SETFA
[15] = SORVU: grain sorghum (Sorghum vulgare), read-out: Visual Growth Reduction (%) 14 Days After Application, SORVU
[16] = TRZSS (wheat, Triticum aestivum), crop, read-out: Visual Growth Reduction (%) 14 Days After Application, TRZSS
[17] = ZEAMX: maize, corn (Zea mays), crop, read-out: Visual Growth Reduction (%) 14 Days After Application, ZEAMX

| Compound | pest or weed control at 70 g/ha [1, 3] | pest or weed control at 140 g/ha [1, 3] | pest or weed control at 70 g/ha [1, 4] | pest or weed control at 140 g/ha [1, 4] | pest or weed control at 70 g/ha [1, 5] | pest or weed control at 140 g/ha [1, 5] | pest or weed control at 70 g/ha [1, 6] | pest or weed control at 140 g/ha [1, 6] | pest or weed control at 70 g/ha [1, 7] | pest or weed control at 140 g/ha [1, 7] | pest or weed control at 70 g/ha [1, 8] | pest or weed control at 140 g/ha [1, 8] | pest or weed control at 70 g/ha [1, 9] | pest or weed control at 140 g/ha [1, 9] | pest or weed control at 70 g/ha [2, 10] | pest or weed control at 140 g/ha [2, 10] | pest or weed control at 70 g/ha [2, 11] | pest or weed control at 140 g/ha [2, 11] | pest or weed control at 70 g/ha [2, 12] | pest or weed control at 140 g/ha [2, 12] | also measured |
| --- | --- | --- | --- | --- | --- | --- | --- | --- | --- | --- | --- | --- | --- | --- | --- | --- | --- | --- | --- | --- | --- |
| Nc1c(F)c(-c2ccc(Br)c(F)c2)nc(C(=O)O)c1Cl [Compound 21] | 95 to 100% | 95 to 100% | 95 to 100% | 95 to 100% | 95 to 100% | 95 to 100% | 95 to 100% | 95 to 100% | 95 to 100% | 95 to 100% | 95 to 100% | 95 to 100% | 95 to 100% | 95 to 100% | 95 to 100% | 95 to 100% | 75 to 84% | 75 to 84% | 95 to 100% | 95 to 100% | pest or weed control at 70 g/ha [2, 13]: 0 to 29%; pest or weed control at 140 g/ha [2, 13]: 0 to 29%; pest or weed control at 70 g/ha [2, 14]: 95 to 100%; pest or weed control at 140 g/ha [2, 14]: 95 to 100%; pest or weed control at 70 g/ha [2, 15]: 95 to 100%; pest or weed control at 140 g/ha [2, 15]: 95 to 100%; pest or weed control at 70 g/ha [2, 16]: 60 to 74%; pest or weed control at 140 g/ha [2, 16]: 60 to 74%; pest or weed control at 70 g/ha [2, 17]: 95 to 100%; pest or weed control at 140 g/ha [2, 17]: 95 to 100%; melting point: 117 to 120 °C |
| C#Cc1ccc(-c2nc(C(=O)OC)c(Cl)c(N)c2F)c(F)c1F [Compound 22] | 0 to 29% | 0 to 29% | 0 to 29% | 0 to 29% | 0 to 29% | 60 to 74% | 45 to 59% | 75 to 84% | 0 to 29% | 95 to 100% | 45 to 59% | 75 to 84% | 0 to 29% | 0 to 29% | 0 to 29% | 0 to 29% | 0 to 29% | 0 to 29% | 0 to 29% | 45 to 59% | pest or weed control at 70 g/ha [2, 13]: 0 to 29%; pest or weed control at 140 g/ha [2, 13]: 0 to 29%; pest or weed control at 70 g/ha [2, 14]: 0 to 29%; pest or weed control at 140 g/ha [2, 14]: 0 to 29%; pest or weed control at 70 g/ha [2, 15]: 0 to 29%; pest or weed control at 140 g/ha [2, 15]: 0 to 29%; pest or weed control at 70 g/ha [2, 16]: 0 to 29%; pest or weed control at 140 g/ha [2, 16]: 0 to 29%; pest or weed control at 70 g/ha [2, 17]: 0 to 29%; pest or weed control at 140 g/ha [2, 17]: 45 to 59%; melting point: 190 to 192 °C |
| COC(=O)c1nc(-c2ccc(I)c(F)c2F)nc(N)c1OC [Compound 24, methyl 6-amino-2-(2,3-difluoro-4-iodophenyl)-5-methoxypyrimidine-4-carboxylate] | 95 to 100% | 95 to 100% | 75 to 84% | 85 to 94% | 95 to 100% | 95 to 100% | 95 to 100% | 95 to 100% | 95 to 100% | 95 to 100% | 85 to 94% | 95 to 100% | 45 to 59% | 95 to 100% | 95 to 100% | 95 to 100% | 45 to 59% | 60 to 74% | 95 to 100% | 95 to 100% | pest or weed control at 70 g/ha [2, 13]: 0 to 29%; pest or weed control at 140 g/ha [2, 13]: 0 to 29%; pest or weed control at 70 g/ha [2, 14]: 60 to 74%; pest or weed control at 140 g/ha [2, 14]: 85 to 94%; pest or weed control at 70 g/ha [2, 15]: 85 to 94%; pest or weed control at 140 g/ha [2, 15]: 85 to 94%; pest or weed control at 70 g/ha [2, 16]: 0 to 29%; pest or weed control at 140 g/ha [2, 16]: 30 to 44%; pest or weed control at 70 g/ha [2, 17]: 95 to 100%; pest or weed control at 140 g/ha [2, 17]: 95 to 100%; melting point: 169 to 170 °C |
